The text below walks through data of patent US20100041603A1, “Method of Promoting Wound Healing” (Corthera, Inc., priority 2008, published 2010).

Entries after “also recorded” stand apart in the source; their conditions may differ.

Series [1] has as its system 20×6 mm incisional wounds on the back. Nature of the series: Porcine skin wound study (incisional wounds, six weeks). The format is in vivo, juvenile pigs. The source says: Overview of the Animal Study. In selecting the appropriate animal for this study, a pig was selected because of the anatomical similarities between pig skin and human skin. In fact, pig wound healing has been used in numerous studies to simulate human skin (Sullivan et al., Wound Repair Regen. 9: 66-76, 2001).
Design of Study. In this study, juvenile pigs were oriented with twelve wound sites per animal—20×6 mm incisional wounds on the back—over the course of a six week study (see FIG. 2). Systemic relaxin was delivered via mini-pumps to achieve 20 ng/mL serum concentrations. Topical formulations were prepared by Dow Pharma, and consisted of propylene glycol and ethanol, which contributed to good long term stability of the therapeutic agent. Dosages consisting of placebo, 0.5 mg/mL (low dose), and 2.5 mg/mL (high dose) were prepared. The goals of the study were to assess the safety of topical relaxin on wound healing and to determine the efficacy of relaxin as a treatment for wound healing and/or scar formation. During the first week, irrigation was performed once daily. During weeks 2-3, topical formulation was applied twice daily, and during weeks […], topical formulation was applied once daily.
Design of Drug The study drug was relaxin (produced by recombinant technology). Recombinant relaxin is identical to the native human hormone H2 relaxin, produced using a recombinant single chain process. The active test article may be aseptically diluted to the desired concentration with the acetate diluent (20 mM sodium acetate, pH 5.0).
Study Procedures. Referring to FIG. 3 which depicts the back of a pig with incisions according to the experimental design described herein at the completion of six weeks, the wound in Section 3 was irrigated with relaxin construct during the first week, and subsequently treated with high dose topical relaxin formulation during weeks 2-6 as described above. Sections 4, 5, and 6 received no irrigation during week 1. Section 4 was treated with placebo. Section 5 was treated with low dose topical formulation, and Section 6 was treated with high dose topical formulation.
Cosmetic appearance of skin. Visual rankings of wound pictures were conducted by neutral observers who evaluated scabs during early wound healing (days 5-7) and scars at the end of the study (see FIG. 4). […] The results of this visual wound assessment determined that 89% of the time a relaxin treatment group was selected in the top three. Only 11% of the time, a group not treated with relaxin was selected in the top three.
A cosmetic score was also determined by a professional dermatologist at weeks 2, 4, and 6. The cosmetic score has five components: (1) color—matching with surrounding skin; (2) texture—no hardness; (3) distortion—no distortion of nearby skin; (4) contour—flush with surrounding skin; (5) global—no hypertrophy or keloid formation. During this dermatological assessment, evaluation at time 2 weeks was obscured by scabs, so the data for cosmetic scores was collected from evaluation at weeks 4 and 6 (see FIG. 5). […] In the bottom profile, the scar is visible.
Histological evaluation. A professional histopathologist evaluated the pathology of the treatments for such indications as granulation, inflammation, and necrosis. In judging granulation tissue, it is considered that early response to wound includes invasion of the site by fibroblasts, inflammatory cells, and new blood vessels. Over time, this resolves to more normal tissue as the site heals. Chronic inflammation characterized by the presence of macrophages, giant cells, lymphocytes, and PMNs indicated adverse reaction. Minor factors such as keratosis (formation of keratin layer outside the epidermis) and acanthosis (thickening of the epidermal layer) are also considered. […]

For series [2], the system named is wounded sites. The note with it: systemic relaxin administration in rats; cited from earlier work.
Series [3] has as its system 20×6 mm incisional wounds on the back. The experiment in a line: Porcine skin wound study (incisional wounds, six weeks). The format is in vivo, juvenile pigs. Particulars: dose range 10-960 μg/kg/day.
Series [4] in a line: Canine gingiva study: RLX migration and degradation after gingival injection (SELDI-TOF MS). The format is in vivo, dog. The note with it: for RLX detection in gingiva away from the site of injection: 1 hr time point; for concentration of H2 RLX detected in treated dog gingiva: site of injection. The protocol:
The aim of this study was to determine the rate of RLX migration and extent of degradation after gingival injections. […] Employing a dog model, RLX was administered and tissue punch biopsies were collected at the site of injection and 0.5, 1 and 2 cm from the site of injection. Tissue was collected at several time points including 1, 2 and 4 hrs after injection. Protein was extracted from the gingival biopsies and analysed via ProteinChip technology (Surface Enhanced Laser Desorption/Ionization Time-of-Flight Mass Spectrometry, SELDI-TOF MS), which combines two well-established methods of solid phase chromatography and TOF-MS into an integrated platform. ProteinChip arrays were coated with anti-H2 RLX Ab, allowing the specific capture of RLX and associated breakdown/modified products.
Design of Drug. Gingival injections were administered (25 μg H2 RLX/100 μl, 41 μM) and tissue was collected at several positions including the site of injection and 0.5, 1 and 2 cm from the site of injection. Tissue was collected 1, 2 and 3 hrs after injection.
a) Protein Extraction and Quantitation. Frozen gingival biopsies were homogenized in extraction buffer (10 μl/mg tissue) containing 10 mM Tris-HCl, 10 mM NaCl, 0.1% TFA and protease inhibitor (complete mini, Roche). The extract was centrifuged (6000×g) for 10 min and the supernatant was collected, aliquoted and stored at −80° C. Total protein concentration was determined using the Bradford assay. Protein concentrations ranged from 1.4 mg/ml to 2.8 mg/ml, all samples were standardized to 1.4 mg/ml in extraction buffer.
b) SELDI-TOF MS analysis—Analysis of RLX treated gingiva on PG20 arrays. Anti-H2 RLX Ab ([…]/0.25 mg/ml; Genentech) or control IgG (Ciphergen Biosystems) was applied to each spot of a PS20 array which had been pre-coated with Protein G (Ciphergen Biosystems). After antibody binding, the chip was washed once with PBS/0.5% Triton X-100 for 5 min with agitation (5 μl per spot), followed by two PBS washes. Dog gingiva extracts (3 μl/1.4 mg/ml) were applied to each spot and incubated for 4 hrs. Non-specifically bound proteins were removed by sequentially washing with PBS/0.5% Triton X-100, PBS and 1 mM HEPES, pH 7.2. The chips were air dried and 1 μl of 50% saturated sinapinic acid in 50% (v/v) acetonitrile, 0.5% trifluoroacetic acid was applied onto each spot twice, arrays were air dried between each application. Chips were subsequently analysed by SELDI-TOF MS (Ciphergen Biosystems) using the following settings, laser 220 and sensitivity 9.
c) Generation of H2 RLX Std Curve on PG20 arrays. H2 RLX (batch number 11835-89) was spiked into control dog gingiva (1.4 mg/ml) at different concentrations, including 100 nM, 50 nM, 12.5 nM, 6.25 nM, 3.125 nM and 1.56 nM and analysed as described above.
Findings. In order to quantitate the levels of RLX in the treated gingiva samples a H2 RLX standard curve was generated. The linear dynamic range was determined to be two orders of magnitude with a R^2 value of 0.9495.

Setting [5] is: systemic relaxin vs wounds not receiving systemic relaxin.
Setting [6] is: systemic relaxin, six weeks, blinded assessments.

Regarding “relaxin: Recombinant relaxin identical to the native human hormone H2 relaxin, produced using a recombinant single chain process”, the “blood vessels / redness in the wound site” value in series [1] (after about six weeks of treatment) is on record as “overall reduction in blood vessels; also recorded: significantly less redness”. Further, the “wound appearance compared to control pig” value in series [1] (after day six, systemic relaxin) is “healed faster, better”. In series [1] (blinded neutral observers ranking the best three of six groups of wound pictures), the “visual wound assessment: share of times a relaxin treatment group was selected in the top three” value came out at 89%. Also, in series [1] (dermatologist cosmetic score, weeks 4 and 6, irrigation relaxin treatment vs only topical relaxin treatment), the “cosmetic ranking of wound/scar areas, irrigation vs topical only” value is recorded as “ranked higher overall”. In series [1] (pig, in vivo), the “adverse effects associated with relaxin treatment (histopathology)” value was “no adverse effects” and the “necrosis or inflammation associated with relaxin treatment” value was “no necrosis or inflammation”. Further, the “scar visibility at wound site” value in series [1] (six weeks of treatment, systemic relaxin vs placebo) is recorded as “the scar is invisible; also recorded: no scar was visible”. Moreover, the “scarring on histopathological slide” value in series [1] (six weeks, relaxin treatment vs no relaxin treatment (severe scarring)) is “mild scarring”. Besides, in series [1] (setting [5]), the “collagen organization (objective collagen scoring system, redness ratio)” value was “significantly better collagen organization” and the “composite wound healing score (three point scale, collagen appearance)” value is “significantly improved”. Moreover, in series [1] (setting [6]), the “chronic inflammation in wound sites (histology score)” value was “significantly reduced” and the “granulation tissue in wound sites (histology score)” value is reported as “significantly reduced”. Moreover, the “wound healing, systemic vs topical administration” value in series [1] (systemic treatment compared to topical administration) is on record as “better wound healing”. In addition, the “wound healing compared to placebo” value in series [1] (topical-only treatment (low and high dose, sections 5 and 6 vs section 4), six weeks) is reported as “improved wound healing”. In series [2], the “VEGF and bFGF transcripts at wounded sites” value was “upregulation”; the “new blood vessel formation at wounded sites” value is listed as “increased new blood vessel formation”. In addition, the “adverse effects and tolerability over dose range” value in series [3] was “no relevant adverse effects; also recorded: well-tolerated”. Besides, the “RLX detection in gingiva away from the site of injection” value (shortened to “RLX detection in gingiva away”) in series [4] (0.5 cm from site of injection) is recorded as “detected”. Also, the “RLX detection in gingiva away” value in series [4] (1 cm from site of injection) is listed as “not detected”. In series [4] (2 cm from site of injection), the “RLX detection in gingiva away” value is reported as “not detected”. In addition, in series [4] (remaining time points (2 and 4 hrs)), the “RLX detection in gingiva” value is given as “only detected at the site of injection”. The “concentration of H2 RLX detected in treated dog gingiva” value (“concentration of H2 RLX detected” for short) in series [4] (1 hr after gingival injection (25 μg H2 RLX/100 μl)) came to 90 nM. In addition, the “concentration of H2 RLX detected” value in series [4] (2 hrs after gingival injection) was 78 nM. Also, the “concentration of H2 RLX detected” value in series [4] (4 hrs after gingival injection) is on record as 21 nM.
